According to patent US10815222B2, “Compounds for use in the treatment of kinetoplastid infection” (C.N.C.C.S. S.c.a.r.l. COLLEZIONE NAZIONALE DEI COMPOSTI …, priority 2016, dated 2020):

Tested on: Bloodstream form of Trypanosoma brucei, strain Lister 427
Experiment: Trypanosoma brucei growth inhibition assay (CellTiter-Glo, 24 h)
Format: cell-based
Details: Trypanosoma brucei; T. Brucei Growth Inibition Assay, class symbols; read-out: T. Brucei GI EC50
Outline: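 Bloodstream-form T. brucei Lister 427, 1500 parasites per well in supplemented IMDM with 10% FBS, were exposed to compound (DMSO ≤0.25% final) for 24 h at 37 °C. Viability was measured by CellTiter-Glo luminescence.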

SMILES	EC50 [nM]
COc1ccc2cc(C)n(CC(=O)N3CCN(Cc4ccn(C)n4)CCC3c3ncc(-c4cc5ccccc5nc4OC)[nH]3)c2c1 (stereo not drawn) [2-(6-methoxy-2-methyl-1H-indol-1-yl)-1-(7-(5-(2-methoxyquinolin-3-yl)-1H-imidazol-2-yl)-4-((1-methyl-1H-pyrazol-3-yl)methyl)-1,4-diazepan-1-yl)ethan-1-one]	< 100
COc1ccc2cc(C)n(CC(=O)N3CCN(CC4CCOC4)C[C@H]3c3ncc(-c4cc5ccccc5nc4OC)[nH]3)c2c1 (stereo partly drawn) [2-(6-methoxy-2-methyl-1H-indol-1-yl)-1-((2S)-2-(5-(2-methoxyquinolin-3-yl)-1H-imidazol-2-yl)-4-((tetrahydrofuran-3-yl)methyl)piperazin-1-yl)ethan-1-one]	< 100
COc1nc2ccccc2cc1-c1cnc(C2CN(S(=O)(=O)N(C)C)CCN2C(=O)Cc2c(C)[nH]c3ccc(F)cc23)[nH]1 (stereo not drawn) [4-(2-(5-fluoro-2-methyl-1H-indol-3-yl)acetyl)-3-(5-(2-methoxyquinolin-3-yl)-1H-imidazol-2-yl)-N,N-dimethylpiperazine-1-sulfonamide]	1010 to 5000
COc1ccc2[nH]c(C)c(CC(=O)N3CC(=O)N(C)CC3c3ncc(-c4ccc5ccccc5c4)[nH]3)c2c1 (stereo not drawn) [4-(2-(5-methoxy-2-methyl-1H-indol-3-yl)acetyl)-1-methyl-5-(5-(naphthalen-2-yl)-1H-imidazol-2-yl)piperazin-2-one]	510 to 1000
CCC(=O)CCCN1CCN(S(=O)(=O)c2ccccc2)C(c2ncc(-c3ccc4ccccc4c3)[nH]2)C1 (stereo not drawn) [6-(3-(5-(naphthalen-2-yl)-1H-imidazol-2-yl)-4-(phenylsulfonyl)piperazin-1-yl)hexan-3-one]	1010 to 5000
CCC(=O)CCCN1CCN(C(=O)Cc2c(C)[nH]c3ccc(OC)cc23)C(c2ncc(-c3ccc4ccccc4c3)o2)C1 (stereo not drawn) [6-(4-(2-(5-methoxy-2-methyl-1H-indol-3-yl)acetyl)-3-(5-(naphthalen-2-yl)oxazol-2-yl)piperazin-1-yl)hexan-3-one]	1010 to 5000
CCC(=O)CCCN1CCN(C(=O)c2ccccc2)C(c2ncc(-c3ccc4ccccc4c3)[nH]2)C1 (stereo not drawn) [6-(4-benzoyl-3-(5-(naphthalen-2-yl)-1H-imidazol-2-yl)piperazin-1-yl)hexan-3-one]	1010 to 5000
CCC(=O)CCCN1CCN(Cc2ccccc2)C(c2ncc(-c3ccc4ccccc4c3)[nH]2)C1 (stereo not drawn) [6-(4-benzyl-3-(5-(naphthalen-2-yl)-1H-imidazol-2-yl)piperazin-1-yl)hexan-3-one]	1010 to 5000
COc1ccc2nc(C(F)(F)F)n(CC(=O)N3CCS(=O)(=O)C[C@H]3c3ncc(-c4cc5ccccc5nc4OC)[nH]3)c2c1 [(R)-2-(6-methoxy-2-(trifluoromethyl)-1H-benzo[d]imidazol-1-yl)-1-(3-(5-(2-methoxyquinolin-3-yl)-1H-imidazol-2-yl)-1,1-dioxidothiomorpholino)ethan-1-one]	100 to 500
COc1ccc2nc(C(F)(F)F)n(CC(=O)N3CCN(Cc4ccn(C)n4)CC[C@@H]3c3ncc(-c4cc5ccccc5nc4OC)[nH]3)c2c1 [(R)-2-(6-methoxy-2-(trifluoromethyl)-1H-benzo[d]imidazol-1-yl)-1-(7-(5-(2-methoxyquinolin-3-yl)-1H-imidazol-2-yl)-4-((1-methyl-1H-pyrazol-3-yl)methyl)-1,4-diazepan-1-yl)ethan-1-one]	1010 to 5000
COc1ccc2nc(C)n(CC(=O)N3CCN(Cc4ccn(C)n4)CC[C@@H]3c3ncc(-c4cc5ccccc5nc4OC)[nH]3)c2c1 [(R)-2-(6-methoxy-2-methyl-1H-benzo[d]imidazol-1-yl)-1-(7-(5-(2-methoxyquinolin-3-yl)-1H-imidazol-2-yl)-4-((1-methyl-1H-pyrazol-3-yl)methyl)-1,4-diazepan-1-yl)ethan-1-one]	< 100
COc1nc2ccccc2cc1-c1cnc([C@@H]2CN(CC(F)(F)F)CCN2C(=O)Cn2c(C(F)(F)F)nc3ccccc32)[nH]1 [(S)-1-(2-(5-(2-methoxyquinolin-3-yl)-1H-imidazol-2-yl)-4-(2,2,2-trifluoroethyl)piperazin-1-yl)-2-(2-(trifluoromethyl)-1H-benzo[d]imidazol-1-yl)ethan-1-one]	< 100
COc1nc2ccccc2cc1-c1cnc([C@@H]2CN(Cc3ccn(C)n3)CCN2C(=O)Cn2c(C(F)(F)F)nc3ccccc32)[nH]1 [(S)-1-(2-(5-(2-methoxyquinolin-3-yl)-1H-imidazol-2-yl)-4-((1-methyl-1H-pyrazol-3-yl)methyl)piperazin-1-yl)-2-(2-(trifluoromethyl)-1H-benzo[d]imidazol-1-yl)ethan-1-one]	< 100
COc1nc2ccccc2cc1-c1cnc([C@@H]2CN(Cc3noc(C)n3)CCN2C(=O)Cn2c(C(F)(F)F)nc3ccccc32)[nH]1 [(S)-1-(2-(5-(2-methoxyquinolin-3-yl)-1H-imidazol-2-yl)-4-((5-methyl-1,2,4-oxadiazol-3-yl)methyl)piperazin-1-yl)-2-(2-(trifluoromethyl)-1H-benzo[d]imidazol-1-yl)ethan-1-one]	< 100
COc1nc2ccccc2cc1-c1cnc([C@@H]2CN(Cc3ncco3)CCN2C(=O)Cn2c(C(F)(F)F)nc3ccccc32)[nH]1 [(S)-1-(2-(5-(2-methoxyquinolin-3-yl)-1H-imidazol-2-yl)-4-(oxazol-2-ylmethyl)piperazin-1-yl)-2-(2-(trifluoromethyl)-1H-benzo[d]imidazol-1-yl)ethan-1-one]	< 100
COc1nc2ccccc2cc1-c1cnc([C@@H]2CN(Cc3cocn3)CCN2C(=O)Cn2c(C(F)(F)F)nc3ccccc32)[nH]1 [(S)-1-(2-(5-(2-methoxyquinolin-3-yl)-1H-imidazol-2-yl)-4-(oxazol-4-ylmethyl)piperazin-1-yl)-2-(2-(trifluoromethyl)-1H-benzo[d]imidazol-1-yl)ethan-1-one]	< 100
COc1nc2ccccc2cc1-c1cnc([C@@H]2CN(C3COC3)CCN2C(=O)Cn2c(C(F)(F)F)nc3ccccc32)[nH]1 [(S)-1-(2-(5-(2-methoxyquinolin-3-yl)-1H-imidazol-2-yl)-4-(oxetan-3-yl)piperazin-1-yl)-2-(2-(trifluoromethyl)-1H-benzo[d]imidazol-1-yl)ethan-1-one]	< 100
COc1nc2ccccc2cc1-c1cnc([C@@H]2CN(CC3COC3)CCN2C(=O)Cn2c(C(F)(F)F)nc3ccccc32)[nH]1 [(S)-1-(2-(5-(2-methoxyquinolin-3-yl)-1H-imidazol-2-yl)-4-(oxetan-3-ylmethyl)piperazin-1-yl)-2-(2-(trifluoromethyl)-1H-benzo[d]imidazol-1-yl)ethan-1-one]	< 100
COc1nc2ccccc2cc1-c1cnc([C@@H]2CN(Cc3cnccn3)CCN2C(=O)Cn2c(C(F)(F)F)nc3ccccc32)[nH]1 [(S)-1-(2-(5-(2-methoxyquinolin-3-yl)-1H-imidazol-2-yl)-4-(pyrazin-2-ylmethyl)piperazin-1-yl)-2-(2-(trifluoromethyl)-1H-benzo[d]imidazol-1-yl)ethan-1-one]	< 100
COc1nc2ccccc2cc1-c1cnc([C@@H]2CN(Cc3ccccn3)CCN2C(=O)Cn2c(C(F)(F)F)nc3ccccc32)[nH]1 [(S)-1-(2-(5-(2-methoxyquinolin-3-yl)-1H-imidazol-2-yl)-4-(pyridin-2-ylmethyl)piperazin-1-yl)-2-(2-(trifluoromethyl)-1H-benzo[d]imidazol-1-yl)ethan-1-one]	< 100
COc1nc2ccccc2cc1-c1cnc([C@@H]2CN(Cc3cccnc3)CCN2C(=O)Cn2c(C(F)(F)F)nc3ccccc32)[nH]1 [(S)-1-(2-(5-(2-methoxyquinolin-3-yl)-1H-imidazol-2-yl)-4-(pyridin-3-ylmethyl)piperazin-1-yl)-2-(2-(trifluoromethyl)-1H-benzo[d]imidazol-1-yl)ethan-1-one]	< 100
COc1nc2ccccc2cc1-c1cnc([C@@H]2CN(Cc3cncnc3)CCN2C(=O)Cn2c(C(F)(F)F)nc3ccccc32)[nH]1 [(S)-1-(2-(5-(2-methoxyquinolin-3-yl)-1H-imidazol-2-yl)-4-(pyrimidin-5-ylmethyl)piperazin-1-yl)-2-(2-(trifluoromethyl)-1H-benzo[d]imidazol-1-yl)ethan-1-one]	< 100
COc1nc2ccccc2cc1-c1cnc([C@@H]2CN(C3CCOCC3)CCN2C(=O)Cn2c(C(F)(F)F)nc3ccccc32)[nH]1 [(S)-1-(2-(5-(2-methoxyquinolin-3-yl)-1H-imidazol-2-yl)-4-(tetrahydro-2H-pyran-4-yl)piperazin-1-yl)-2-(2-(trifluoromethyl)-1H-benzo[d]imidazol-1-yl)ethan-1-one]	< 100
COc1nc2ccccc2cc1-c1cnc([C@@H]2CN(Cc3nccs3)CCN2C(=O)Cn2c(C(F)(F)F)nc3ccccc32)[nH]1 [(S)-1-(2-(5-(2-methoxyquinolin-3-yl)-1H-imidazol-2-yl)-4-(thiazol-2-ylmethyl)piperazin-1-yl)-2-(2-(trifluoromethyl)-1H-benzo[d]imidazol-1-yl)ethan-1-one]	< 100
COc1nc2ccccc2cc1-c1cnc([C@@H]2CN(Cc3cscn3)CCN2C(=O)Cn2c(C(F)(F)F)nc3ccccc32)[nH]1 [(S)-1-(2-(5-(2-methoxyquinolin-3-yl)-1H-imidazol-2-yl)-4-(thiazol-4-ylmethyl)piperazin-1-yl)-2-(2-(trifluoromethyl)-1H-benzo[d]imidazol-1-yl)ethan-1-one]	< 100
COc1nc2ccccc2cc1-c1cnc([C@@H]2CN(C3CCS(=O)(=O)CC3)CCN2C(=O)Cn2c(C(F)(F)F)nc3ccccc32)[nH]1 [(S)-1-(4-(1,1-dioxidotetrahydro-2H-thiopyran-4-yl)-2-(5-(2-methoxyquinolin-3-yl)-1H-imidazol-2-yl)piperazin-1-yl)-2-(2-(trifluoromethyl)-1H-benzo[d]imidazol-1-yl)ethan-1-one]	< 100
COc1ccc2nc(C(F)(F)F)n(CC(=O)N3CCN(C4CCS(=O)(=O)CC4)C[C@H]3c3ncc(-c4cc5ccccc5nc4OC)[nH]3)c2c1 [(S)-1-(4-(1,1-dioxidotetrahydro-2H-thiopyran-4-yl)-2-(5-(2-methoxyquinolin-3-yl)-1H-imidazol-2-yl)piperazin-1-yl)-2-(6-methoxy-2-(trifluoromethyl)-1H-benzo[d]imidazol-1-yl)ethan-1-one]	< 100
